Results taken from ChEMBL document CHEMBL5634173, “Identification of a novel histone H2A mono-ubiquitination-inhibiting cell-active small molecule” (Bioorg Med Chem Lett, 2024).
Activity calls are given as the source filed them. The calls are words filed in the database; no cut-off is given here.

Key:
[1] = test system: U2OS; experiment: Antiproliferative activity against human U2OS cells assessed as reduction in cell viability at 30 uM incubated for 72 hrs; type: functional, cell-based
[2] = test system: U2OS; experiment: Antiproliferative activity against human U2OS cells assessed as reduction in cell viability incubated for 72 hrs; type: functional, cell-based
[3] = test system: U2OS; experiment: Antiproliferative activity against human U2OS cells assessed as reduction in cell viability at 30 uM incubated for 72 hrs relative to control; type: functional
[4] = test system: U2OS; experiment: Inhibition of histone H2A ubiquitination at K119 residue in human U2OS cells assessed as decrease in H2AK119ub1 level incubated for 1 hr by Western blotting analysis; type: cell-based; conditions: dose 24-96 µM
[5] = test system: U2OS; experiment: Antiproliferative activity against human U2OS cells assessed as reduction in cell viability at 50 uM incubated for 72 hrs; type: functional, cell-based

| Compound | Activity [1] | IC50 [2] [µM] | other results |
| --- | --- | --- | --- |
| O=C1C(=Cc2cccc(F)c2)C(=O)c2ccccc21 | inactive | – | – |
| COc1ccc(C=C2C(=O)c3ccccc3C2=O)cc1 | inactive | – | – |
| Cc1ccc(C=C2C(=O)c3ccccc3C2=O)cc1 | inactive | – | – |
| O=C1C(=Cc2ccccc2)C(=O)c2ccccc21 | inactive | – | – |
| COc1cccc(C=C2C(=O)c3ccccc3C2=O)c1 | inactive | – | – |
| O=C1C(=Cc2cccc([N+](=O)[O-])c2)C(=O)c2ccccc21 | Active | 24 | – |
| Cc1cccc(C)c1C=C1C(=O)c2ccccc2C1=O | inactive | – | – |
| N#Cc1cccc(C=C2C(=O)c3ccccc3C2=O)c1 | – | 32.1 | – |
| COc1ccccc1C=C1C(=O)c2ccccc2C1=O | inactive | – | – |
| O=C1C(=Cc2ccc([N+](=O)[O-])cc2)C(=O)c2ccccc21 | Active | 33.5 | – |
| Cc1ccccc1C=C1C(=O)c2ccccc2C1=O | inactive | – | – |
| Cc1cccc(C=C2C(=O)c3ccccc3C2=O)c1 | inactive | – | – |
| O=C1C(=Cc2c([N+](=O)[O-])cccc2[N+](=O)[O-])C(=O)c2ccccc21 | – | 5.86 | Activity [3]: 100%; inhibition [4]: Dose-Dependent Effect |
| O=C1C(=Cc2ccccc2[N+](=O)[O-])C(=O)c2ccccc21 | Active | 39.6 | – |
| CCc1c(-c2cccc3[nH]ccc23)[nH]c(C(=O)O)c1-c1ccccc1Cl | – | – | Activity [5]: inactive |
| O=C1C(=Cc2ccc([N+](=O)[O-])cc2[N+](=O)[O-])C(=O)c2ccccc21 | – | 24 | – |
| O=C1C(=Cc2cccnc2)C(=O)c2ccccc21 | – | 45.2 | Activity [2]: Dose-Dependent Effect; Activity [5]: Active |
